Test results reported in publication PMC12748375, “Insights into cannabinoid receptor 2 (CB2) anterograde trafficking and pharmacological chaperoning” (Cellular and Molecular Life Sciences: CMLS, 2025).

Key:
[1] = target: T1, hCB2 wt (Homo sapiens, UniProt P34972); assay: receptor internalisation, surface HA immunocytochemistry (Method A); assay type: cell-based; conditions: read-out: Method A: Internalisation (3 h) / CB2 wt / pEC50 (± SEM) (converted)
T1 construct: gene CNR2; full-length (63Q), N-terminal HA tag and three thrombin cleavage sites (HA-3TCS), pcDNA5/FRT, expressed in HEK Flp-in-293 cells
From the text: receptor internalisation, surface HA immunocytochemistry (Method A) on hCB2 wt

[2] = target: T2, hCB2 wt (Homo sapiens, UniProt P34972, K318E/K319E); assay: net surface expression, immunocytochemistry (Method B); assay type: cell-based; conditions: read-out: Method B: Net Surface Expression (3 h) / KK mutant / pEC50 (± SEM) (converted)
T2 construct: gene CNR2; full-length (63Q), N-terminal HA tag and three thrombin cleavage sites (HA-3TCS), pcDNA5/FRT, expressed in HEK Flp-in-293 cells
T2 sequence (P34972 whole entry K318E/K319E): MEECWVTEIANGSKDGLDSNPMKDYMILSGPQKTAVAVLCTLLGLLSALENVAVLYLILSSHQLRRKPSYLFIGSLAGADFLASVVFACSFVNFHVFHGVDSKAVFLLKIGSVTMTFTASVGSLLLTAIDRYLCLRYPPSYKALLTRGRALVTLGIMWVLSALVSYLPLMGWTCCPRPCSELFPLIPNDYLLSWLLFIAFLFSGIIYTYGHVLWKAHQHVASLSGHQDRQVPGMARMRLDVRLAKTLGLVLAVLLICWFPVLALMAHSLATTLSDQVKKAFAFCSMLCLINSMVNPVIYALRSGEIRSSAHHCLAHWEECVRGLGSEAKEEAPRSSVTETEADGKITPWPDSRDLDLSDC

T1 sequence (P34972 whole entry): as the sequence (P34972 whole entry K318E/K319E) above, with E318K, E319K counted along it

Row | SMILES | EC50 [1] | EC50 [2]
1 | CCCCC/C=C\C/C=C\C/C=C\C/C=C\CCCC(=O)OC(CO)CO [2-AG] | 741 nM | 
2 | COc1ccc(C(=O)c2c(C)n(CCN3CCOCC3)c3cc(I)ccc23)cc1 [AM630] |  | 513 nM
